Data: US20070010671A1, “Novel quinazoline derivatives and methods of treatment related to the use thereof” (priority 2003, published 2007)

Target: MCH receptor (Homo sapiens, UniProt Q99705)
Test: High throughput functional screening FLIPR/FDSS6000: inhibition of MCH-evoked intracellular Ca2+ changes
Type: cell-based
Conditions: class by percent of control at 10^−7 M or by IC50; read-out: class
Excerpt: Subsequently, a functional based assay was used to confirm the lead hits, referred to as FLIPR™ (the Fluorometric Imaging Plate Reader) and FDSS6000™ (Functional Drug Screening System). This assay utilized 3 non-endozenous, constitutively active version of the MCH receptor.
The FLIPR and FDSS assays are able to detect intracellular Ca^2+ concentration in cells, which can be utilized to assess receptor activation and determine whether a candidate compound is an, for example, antagonist, inverse agonist or agonist to a Gq-coupled receptor. The concentration of free Ca^2+ in the cytosol of any cell is extremely low, whereas its concentration in the extracellular fluid and endoplasmic reticulum (ER) is very high. Thus, there is a large gradient tending to drive Ca^2+ into the cytosol across both the plasma membrane and ER. The FLIPR™ and FDSS6000™ systems (Molecular Devices Corporation, HAMAMATSU Photonics K.K.) are designed to perform functional cell-based assays, such as the measurement of intracellular calcium for high-throughput screening, The measurement of fluorescent is associated with calcium release upon activation of the Gq-coupled receptors.
Fluorometric Imaging Plate Reader system was used to allow for rapid, kinetic measurements of intracellular fluorescence in 96 well microplates (or 384 well microplates). Simultaneous measurements of fluorescence in all wells can be made by FLIPR or FDSS6000™ every second with high sensitivity and precision. These systems are ideal for measuring cell-based functional assays such as monitoring the intracellular calcium fluxes that occur within seconds after activation of the Gq coupled receptor.
Briefly, the cells are seeded into 96 well at 5.5×10^4 cells/well with complete culture media (Dulbecco's Modified Eagle Medium with 10% fetal bovine serum, 2 mMi L-glutamine, 1 mM sodium pyruvate and 0.5 mg/ml G418, pH 7.4) for the assay next day. On the day of assay, the media is removed and the cells are incubated with 100 μl of loading buffer (4 μM Fluo4-AM in complete culture media containing 2.5 mM Probenicid, 0.5 mg/ml and 0.2% bovine serum albumin) in 5% CO2 incubator at 37° C. for 1 hr. The loading buffer is removed, and the cells are washed with wash buffer (Hank's Balanced Salt Solution containing 2.5 mM Probenicid, 20 mM HEPES, 0.5 mg/ml and 0.2% bovine serum albumm, pH 7.4)). One hundred fifty μl of wash buffer containing various concentrations of test compound is added to the cells, and the cells are incubated in 5% CO2 incubator at 37° C. for 3 min. Fifty μl of wash buffer containing various concentration of MCH are added to each well, and transient changes in [Ca^2+]i evokled bee MCH are monoitored using the FLIPR, or FDSS in 96 shell plates at Ex. 488 nm and Em. 530 nm for 290 second. When antagonist activity of compound is tested, 50 nM of MCH is used.
Use of FLIPR™ and FDSS6000™ can be accomplished by following manufacturer's instruction (Molecular Device Corporation and HAMAMATSU Photonics K.K.).

`COc1cc(CNC(=O)[C@H]2CC[C@@H](Nc3nc(N(C)C)c4cc(F)c(F)cc4n3)CC2)cc(OC)c1` [Example 993, cis-N-(3,5-dimethoxybenzyl)-4-{[4-(dimethylamino)-6,7-difluoroquinazolin-2-yl]amino}cyclohexanecarboxamide] and `COc1cccc(CNC(=O)[C@H]2CC[C@@H](Nc3nc(N(C)C)c4cc(F)c(F)cc4n3)CC2)c1` [Example 995, cis-4-{[4-(dimethylamino)-6,7-difluoroquinazolin-2-yl]amino}-N-(3-methoxybenzyl)cyclohexanecarboxamide] fall in the same range of IC50: 50 to 200 nM for the first, 50 to 200 nM for the second.

`COc1ccc(CNC(=O)[C@H]2CC[C@@H](Nc3nc(N(C)C)c4cc(F)c(F)cc4n3)CC2)cc1` [Example 994, cis-4-{[4-(dimethylamino)-6,7-difluoroquinazolin-2-yl]amino}-N-(4-methoxybenzyl)cyclohexanecarboxamide] and `CN(C)c1nc(N[C@H]2CC[C@@H](C(=O)NCc3ccc(Br)cc3)CC2)nc2cc(F)c(F)cc12` [Example 1002, cis-N-(4-bromobenzyl)-4-{[4-(dimethylamino)-6,7-difluoroquinazolin-2-yl]amino}cyclohexanecarboxamide] cannot be ordered by IC50: less than 50 nM for the first, less than 50 nM for the second.

`CN(C)c1nc(N[C@H]2CC[C@@H](C(=O)NCc3ccc(Cl)nc3)CC2)nc2cc(F)c(F)cc12` [Example 996, cis-N-[(6-chloropyridin-3-yl)methyl]-4-{[4-(dimethylamino)-6,7-difluoroquinazolin-2-yl]amino}cyclohexanecarboxamide] and `CN(C)c1nc(N[C@H]2CC[C@@H](C(=O)NCc3cccc(I)c3)CC2)nc2cc(F)c(F)cc12` [Example 1006, cis-4-{[4-(dimethylamino)-6,7-difluoroquinazolin-2-yl]amino}-N-(3-iodobenzyl)cyclohexanecarboxamide] fall in the same range of IC50: 50 to 200 nM for the first, 50 to 200 nM for the second.

Going from `CN(C)c1nc(N[C@H]2CC[C@@H](C(=O)NCc3ccc(F)cc3F)CC2)nc2cc(F)c(F)cc12` [Example 997, cis-N-(2,4-difluorobenzyl)-4-{[4-(dimethylamino)-6,7-difluoroquinazolin-2-yl]amino}cyclohexanecarboxamide] to `CN(C)c1nc(N[C@H]2CC[C@@H](C(=O)NCc3ccc(Cl)cc3Cl)CC2)nc2cc(F)c(F)cc12` [Example 1000, cis-N-(2,4-dichlorobenzyl)-4-{[4-(dimethylamino)-6,7-difluoroquinazolin-2-yl]amino}cyclohexanecarboxamide], the IC50 falls from greater than 200 nM to less than 50 nM.

First: CN(C)c1nc(N[C@H]2CC[C@@H](C(=O)NCc3cccc(C(F)(F)F)c3)CC2)nc2cc(F)c(F)cc12 [Example 998, cis-4-{[4-(dimethylamino)-6,7-difluoroquinazolin-2-yl]amino}-N-[3-(trifluoromethyl)benzyl]cyclohexanecarboxamide]
Second: CN(C)c1nc(N[C@H]2CC[C@@H](C(=O)NCc3ccc(C(F)(F)F)cc3)CC2)nc2cc(F)c(F)cc12 [Example 999, cis-4-{[4-(dimethylamino)-6,7-difluoroquinazolin-2-yl]amino}-N-[4-(trifluoromethyl)benzyl]cyclohexanecarboxamide]
The IC50 of the first is lower: less than 50 nM for the first, 50 to 200 nM for the second. The first is the more potent here.

First: CN(C)c1nc(N[C@H]2CC[C@@H](C(=O)NCc3cc(Cl)cc(Cl)c3)CC2)nc2cc(F)c(F)cc12 [Example 1001, cis-N-(3,5-dichlorobenzyl)-4-{[4-(dimethylamino)-6,7-difluoroquinazolin-2-yl]amino}cyclohexanecarboxamide]
Second: CN(C)c1nc(N[C@H]2CC[C@@H](C(=O)NCc3cc(C(F)(F)F)cc(C(F)(F)F)c3)CC2)nc2cc(F)c(F)cc12 [Example 1005, cis-N-[3,5-bis(trifluoromethyl)benzyl]-4-{[4-(dimethylamino)-6,7-difluoroquinazolin-2-yl]amino}cyclohexanecarboxamide]
The IC50 of the first is lower: less than 50 nM for the first, greater than 200 nM for the second.

`CN(C)c1nc(N[C@H]2CC[C@@H](C(=O)NCc3ccccc3Br)CC2)nc2cc(F)c(F)cc12` [Example 1003, cis-N-(2-bromobenzyl)-4-{[4-(dimethylamino)-6,7-difluoroquinazolin-2-yl]amino}cyclohexanecarboxamide] and `CN(C)c1nc(N[C@H]2CC[C@@H](C(=O)NCc3ccc(OC(F)(F)F)cc3)CC2)nc2cc(F)c(F)cc12` [Example 1004, cis-4-{[4-(dimethylamino)-6,7-difluoroquinazolin-2-yl]amino}-N-[4-(trifluoromethoxy)benzyl]cyclohexanecarboxamide] cannot be ordered by IC50: less than 50 nM for the first, less than 50 nM for the second.

`Cc1ccc([C@H](C)NC(=O)[C@H]2CC[C@@H](Nc3nc(N(C)C)c4cc(F)c(F)cc4n3)CC2)cc1` [Example 1007, cis-4-{[4-(dimethylamino)-6,7-difluoroquinazolin-2-yl]amino}-N-[(1S)-1-(4-methylphenyl)ethyl]cyclohexanecarboxamide] and `COc1ccc(NC(=O)N[C@H]2CC[C@@H](Nc3nc(N(C)C)c4ccccc4n3)CC2)cc1OC` [Example 1010, N-(3,4-dimethoxyphenyl)-N′-(cis-4-{[4-(dimethylamino)quinazolin-2-yl]amino}cyclohexyl)urea] cannot be ordered by IC50: less than 50 nM for the first, less than 50 nM for the second.

First: CN(C)c1nc(N[C@H]2CC[C@@H](NC(=O)Nc3cccc(OC(F)(F)F)c3)CC2)nc2ccccc12 [Example 1009, N-(cis-4-{[4-(dimethylamino)quinazolin-2-yl]amino}cyclohexyl)-N′-[3-(trifluoromethoxy)phenyl]urea]
Second: COc1cccc(NC(=O)NC[C@H]2CC[C@@H](Nc3nc(N(C)C)c4ccccc4n3)CC2)c1 [Example 1017, N-[(cis-4-{[4-(dimethylamino)quinazolin-2-yl]amino}cyclohexyl)methyl]-N′-(3-methoxyphenyl)urea]
The IC50 of the first is lower: less than 50 nM for the first, 50 to 200 nM for the second. The first is the more potent here.

Compared with `CN(C)c1nc(N[C@H]2CC[C@@H](NC(=O)Nc3ccccc3Cl)CC2)nc2ccccc12` [Example 1011, N-(2-chlorophenyl)-N′-(cis-4-{[4-(dimethylamino)quinazolin-2-yl]amino}cyclohexyl)urea], `CN(C)c1nc(N[C@H]2CC[C@@H](NC(=O)Nc3cccc(Cl)c3Cl)CC2)nc2ccccc12` [Example 1013, N-(2,3-dichlorophenyl)-N′-(cis-4-{[4-(dimethylamino)quinazolin-2-yl]amino}cyclohexyl)urea] is higher in IC50: 50 to 200 nM for the first, greater than 200 nM for the second. The first is the more potent here.

First: CN(C)c1nc(N[C@H]2CC[C@@H](NC(=O)Nc3c(Cl)cccc3Cl)CC2)nc2ccccc12 [Example 1012, N-(2,6-dichlorophenyl)-N′-(cis-4-{[4-(dimethylamino)quinazolin-2-yl]amino}cyclohexyl)urea]
Second: CN(C)c1nc(N[C@H]2CC[C@@H](NC(=S)Nc3ccccc3Br)CC2)nc2ccccc12 [Example 1014, N-(2-bromophenyl)-N′-(cis-4-{[4-(dimethylamino)quinazolin-2-yl]amino}cyclohexyl)thiourea]
The IC50 of the first is higher: greater than 200 nM for the first, 50 to 200 nM for the second.

`COc1ccccc1NC(=O)NC[C@H]1CC[C@@H](Nc2nc(N(C)C)c3ccccc3n2)CC1` [Example 1015, N-[(cis-4-{[4-(dimethylamino)quinazolin-2-yl]amino}cyclohexyl)methyl]-N′-(2-methoxyphenyl)urea] and `CCOc1ccccc1NC(=O)NC[C@H]1CC[C@@H](Nc2nc(N(C)C)c3ccccc3n2)CC1` [Example 1016, N-[(cis-4-{[4-(dimethylamino)quinazolin-2-yl]amino}cyclohexyl)methyl]-N′-(2-ethoxyphenyl)urea] fall in the same range of IC50: 50 to 200 nM for the first, 50 to 200 nM for the second.

First: COc1ccc(NC(=O)NC[C@H]2CC[C@@H](Nc3nc(N(C)C)c4ccccc4n3)CC2)cc1OC [Example 1018, N-(3,4-dimethoxyphenyl)-N′-[(cis-4-{[4-(dimethylamino)quinazolin-2-yl]amino}cyclohexyl)methyl]urea]
Second: COc1ccc(OC)c(NC(=O)NC[C@H]2CC[C@@H](Nc3nc(N(C)C)c4ccccc4n3)CC2)c1 [Example 1020, N-(2,5-dimethoxyphenyl)-N′-[(cis-4-{[4-(dimethylamino)quinazolin-2-yl]amino}cyclohexyl)methyl]urea]
The IC50 of the first is higher: greater than 200 nM for the first, 50 to 200 nM for the second. The second is the more potent here.

In the case of `COc1ccc(NC(=O)NC[C@H]2CC[C@@H](Nc3nc(N(C)C)c4ccccc4n3)CC2)c(OC)c1` [Example 1019, N-(2,4-dimethoxyphenyl)-N′-[(cis-4-{[4-(dimethylamino)quinazolin-2-yl]amino}cyclohexyl)methyl]urea], the IC50 is reported as 50 to 200 nM.
